According to article PMC11650638, “In Vivo Activity Profiling of Biosynthetic Darobactin D22 against Critical Gram-Negative Pathogens” (ACS Infectious Diseases, 2024):

Legend:
Assay type in all cases: cell-based
Pseudomonas aeruginosa = assay: MIC50/MIC90 determination and MIC against isolates of P. aeruginosa
Escherichia coli = assay: MIC50/MIC90 determination and MIC against isolates of E. coli
Acinetobacter baumannii = assay: MIC50/MIC90 determination and MIC against isolates of A. baumannii
Klebsiella pneumoniae = assay: MIC50/MIC90 determination and MIC against isolates of K. pneumoniae

Substance: colistin
- MIC (Pseudomonas aeruginosa; isolate ATCC BAA-2114): 2 µg/mL
- MIC (Pseudomonas aeruginosa; isolate BOR 04): 4 µg/mL
- MIC (Pseudomonas aeruginosa; isolate BOR 05): 4 µg/mL
- MIC (Pseudomonas aeruginosa; isolate CAE 02): 2 µg/mL
- MIC (Pseudomonas aeruginosa; isolate CHA): 2 µg/mL
- MIC (Pseudomonas aeruginosa; isolate CHRU LILLE VAP11): 4 µg/mL
- MIC (Pseudomonas aeruginosa; isolate CHRU LILLE VAP65a): 4 µg/mL
- MIC (Pseudomonas aeruginosa; isolate CIP 105250): 2 µg/mL
- MIC (Pseudomonas aeruginosa; isolate CIP 105381): 2 µg/mL
- MIC (Pseudomonas aeruginosa; isolate CIP 107051): 2 µg/mL
- MIC (Pseudomonas aeruginosa; isolate CLI 02): 2 to 4 µg/mL
- MIC (Pseudomonas aeruginosa; isolate CLI 03): 2 µg/mL
- MIC (Pseudomonas aeruginosa; isolate COL 03): 2 µg/mL
- MIC (Pseudomonas aeruginosa; isolate DIJ 02): 2 µg/mL
- MIC (Pseudomonas aeruginosa; isolate NANC 01): 2 µg/mL
- MIC (Pseudomonas aeruginosa; isolate NANC 06): 4 µg/mL
- MIC (Pseudomonas aeruginosa; isolate NCTC13437): 2 µg/mL
- MIC (Pseudomonas aeruginosa; isolate PA 43): 2 µg/mL
- MIC (Pseudomonas aeruginosa; isolate PAO1): 4 µg/mL
- MIC (Pseudomonas aeruginosa; isolate PBI 01): 4 µg/mL
- MIC (Pseudomonas aeruginosa; isolate PBI 03G): 2 µg/mL
- MIC (Pseudomonas aeruginosa; isolate PBI 07): 2 µg/mL
- MIC (Pseudomonas aeruginosa; isolate PGP 02): 4 µg/mL
- MIC (Pseudomonas aeruginosa; isolate R1541): 4 µg/mL
- MIC (Pseudomonas aeruginosa; isolate R2254): 4 µg/mL
- MIC (Pseudomonas aeruginosa; isolate R2255): 2 µg/mL
- MIC (Pseudomonas aeruginosa; isolate R2256): 2 µg/mL
- MIC (Pseudomonas aeruginosa; isolate ROU 01): 4 µg/mL
- MIC (Pseudomonas aeruginosa; isolate SDE 05): 2 µg/mL
- MIC (Pseudomonas aeruginosa; isolate STR 02): 2 µg/mL
- MIC (Pseudomonas aeruginosa; isolate TOUL 01): 2 to 4 µg/mL
- MIC (Escherichia coli; isolate ATCC25922): 2 to 4 µg/mL
- MIC (Escherichia coli; isolate ATCC BAA-2340): 2 µg/mL
- MIC (Escherichia coli; isolate ATCC BAA-2469): 2 µg/mL
- MIC (Escherichia coli; isolate ATCC BAA-2471): 1 to 2 µg/mL
- MIC (Escherichia coli; isolate CIP 104103): 1 to 2 µg/mL
- MIC (Escherichia coli; isolate CIP 105706): 1 to 2 µg/mL
- MIC (Escherichia coli; isolate CIP 107049): 2 to 4 µg/mL
- MIC (Escherichia coli; isolate G38): 2 µg/mL
- MIC (Escherichia coli; isolate G41 (first listing)): 2 µg/mL
- MIC (Escherichia coli; isolate G41 (second listing)): 1 µg/mL
- MIC (Escherichia coli; isolate G260): 2 µg/mL
- MIC (Escherichia coli; isolate G264): 2 µg/mL
- MIC (Escherichia coli; isolate G409): 2 µg/mL
- MIC (Escherichia coli; isolate G486): 2 µg/mL
- MIC (Escherichia coli; isolate G487): 1 µg/mL
- MIC (Escherichia coli; isolate NCTC10418): 2 to 4 µg/mL
- MIC (Escherichia coli; isolate NCTC13352): 2 to 4 µg/mL
- MIC (Escherichia coli; isolate NCTC13400): 1 µg/mL
- MIC (Escherichia coli; isolate NCTC13441): 2 µg/mL
- MIC (Escherichia coli; isolate NCTC13846): 8 µg/mL
- MIC (Escherichia coli; isolate PRAA1): 1 µg/mL
- MIC (Escherichia coli; isolate PRAA3): 2 to 4 µg/mL
- MIC (Escherichia coli; isolate PRAA17): 2 µg/mL
- MIC (Escherichia coli; isolate PRAA18): 2 µg/mL
- MIC (Escherichia coli; isolate PRAA21): 2 to 4 µg/mL
- MIC (Escherichia coli; isolate R721): 2 µg/mL
- MIC (Escherichia coli; isolate R995): 2 µg/mL
- MIC (Escherichia coli; isolate R996): 1 µg/mL
- MIC (Escherichia coli; isolate R1535): 2 µg/mL
- MIC (Escherichia coli; isolate R2670): 1 to 2 µg/mL
- MIC (Acinetobacter baumannii; isolate ATCC17978): 4 µg/mL
- MIC (Acinetobacter baumannii; isolate ATCC19003): 2 to 4 µg/mL
- MIC (Acinetobacter baumannii; isolate ATCC19187): 4 µg/mL
- MIC (Acinetobacter baumannii; isolate ATCC19606): 4 µg/mL
- MIC (Acinetobacter baumannii; isolate ATCC27224): 2 µg/mL
- MIC (Acinetobacter baumannii; isolate ATCC51432): 8 µg/mL
- MIC (Acinetobacter baumannii; isolate ATCC BAA-747): 4 µg/mL
- MIC (Acinetobacter baumannii; isolate ATCC BAA-1605): 2 µg/mL
- MIC (Acinetobacter baumannii; isolate ATCC BAA-1710): 4 to 8 µg/mL
- MIC (Acinetobacter baumannii; isolate ATCC BAA-1791): 2 µg/mL
- MIC (Acinetobacter baumannii; isolate ATCC BAA-1795): 8 µg/mL
- MIC (Acinetobacter baumannii; isolate ATCC BAA-1878): 4 µg/mL
- MIC (Acinetobacter baumannii; isolate BM4454): 4 to 8 µg/mL
- MIC (Acinetobacter baumannii; isolate BM4652 (efflux mutant)): 4 µg/mL
- MIC (Acinetobacter baumannii; isolate CIP 105742): 2 µg/mL
- MIC (Acinetobacter baumannii; isolate CIP 107292): 4 to 8 µg/mL
- MIC (Acinetobacter baumannii; isolate DSM 30008): 4 µg/mL
- MIC (Acinetobacter baumannii; isolate G478 (AYE)): 2 to 8 µg/mL
- MIC (Acinetobacter baumannii; isolate NCTC13301): 8 µg/mL
- MIC (Acinetobacter baumannii; isolate R831): 4 to 8 µg/mL
- MIC (Acinetobacter baumannii; isolate R835): 4 to 8 µg/mL
- MIC (Klebsiella pneumoniae; isolate ATCC13883): 1 µg/mL
- MIC (Klebsiella pneumoniae; isolate ATCC13883 ColR_): 64 µg/mL
- MIC (Klebsiella pneumoniae; isolate ATCC43816): 1 µg/mL
- MIC (Klebsiella pneumoniae; isolate ATCC BAA-1705): 2 µg/mL
- MIC (Klebsiella pneumoniae; isolate ATCC BAA-1903): 1 µg/mL
- MIC (Klebsiella pneumoniae; isolate ATCC BAA-2342): 4 µg/mL
- MIC (Klebsiella pneumoniae; isolate ATCC BAA-2470): 1 µg/mL
- MIC (Klebsiella pneumoniae; isolate ATCC BAA-2472): 2 µg/mL
- MIC (Klebsiella pneumoniae; isolate ATCC BAA-2473): 1 µg/mL
- MIC (Klebsiella pneumoniae; isolate CIP 104119): 1 µg/mL
- MIC (Klebsiella pneumoniae; isolate CIP 104298): 16 µg/mL
- MIC (Klebsiella pneumoniae; isolate CIP 105705): 2 µg/mL
- MIC (Klebsiella pneumoniae; isolate CIP 106982): 2 µg/mL
- MIC (Klebsiella pneumoniae; isolate Clinical Lyo-01): 1 µg/mL
- MIC (Klebsiella pneumoniae; isolate Clinical Lyo-02): 1 µg/mL
- MIC (Klebsiella pneumoniae; isolate Clinical Lyo-03): 2 µg/mL
- MIC (Klebsiella pneumoniae; isolate Clinical Lyo-04): 1 µg/mL
- MIC (Klebsiella pneumoniae; isolate Clinical Lyo-05): 1 µg/mL
- MIC (Klebsiella pneumoniae; isolate G52): 1 µg/mL
- MIC (Klebsiella pneumoniae; isolate G197): 1 µg/mL
- MIC (Klebsiella pneumoniae; isolate G201): 1 µg/mL
- MIC (Klebsiella pneumoniae; isolate G306): 1 µg/mL
- MIC (Klebsiella pneumoniae; isolate NCTC13438): 1 µg/mL
- MIC (Klebsiella pneumoniae; isolate NCTC13439): 2 µg/mL
- MIC (Klebsiella pneumoniae; isolate NCTC13442): 1 µg/mL
- MIC (Klebsiella pneumoniae; isolate NCTC13443): 1 µg/mL
- MIC (Klebsiella pneumoniae; isolate R750): 1 µg/mL
- MIC (Klebsiella pneumoniae; isolate R1242): 1 µg/mL
- MIC (Klebsiella pneumoniae; isolate R1525): 1 µg/mL
- MIC (Klebsiella pneumoniae; isolate R2673): 1 µg/mL
